Assay [1] concerns SARS-CoV-2 (SARS-CoV2/ZG/297-20) in Vero E6 cells. Put plainly: microbe, parasite or virus in culture. The format is cell-based. The conditions noted are these: for inhibition at 10 µM / inhibition at 50 µM: Severe acute respiratory syndrome coronavirus 2, Vero C1008, 72 h; for inhibition at 10 µM: read-out: Antiviral Activity 10 uM; for inhibition at 50 µM: read-out: Antiviral Activity 50 uM; for EC50: Severe acute respiratory syndrome coronavirus 2, Vero C1008, Vero E6 infected with SARS-CoV-2 at an MOI of 0.05, read-out: EC50 in antiviral assay.

Assay [2] has as its target T1, recombinant SARS-CoV-2 main protease (Mpro) (Severe acute respiratory syndrome coronavirus 2, UniProt P0DTD1).
T1 construct: the main protease (Mpro; also called 3CLpro) which has an essential role in processing the polyproteins
Briefly: biochemical. Conditions: FRET assay, Mpro 50 nM, substrate 10 μM.

Where only a bound is given, the exact number is not on record here.

The values that follow come from US20260137677A1, “PROTACS USEFUL AGAINST THE MAIN PROTEASE SARS-COV-2” (Tocris Cookson Limited, priority 2022, published 2026).

The IC50 is the concentration that gives 50% inhibition. With `O=C1CCC(N2C(=O)c3ccc(N4CCN(C(=O)[C@H](NC(=O)[C@@H](c5cccnc5)N(C(=O)c5ccco5)c5ccc(-c6ccccc6)cc5)c5ccccc5)CC4)cc3C2=O)C(=O)N1` (single isomer, unassigned) [TS466], in assay [1], the inhibition at 10 µM is less than 0% and the inhibition at 50 µM is less than 0%. In addition, in assay [2], the IC50 was less than 0.1 µM.

For `O=C1CCC(N2C(=O)c3ccc(NCCOCCOCCNC(=O)[C@H](NC(=O)[C@@H](c4cccnc4)N(C(=O)c4ccco4)c4ccc(-c5ccccc5)cc4)c4ccccc4)cc3C2=O)C(=O)N1` (single isomer, unassigned) [TS464], in assay [1], the inhibition at 10 µM is less than 0% and the inhibition at 50 µM was less than 25%. Besides, in assay [2], the IC50 was less than 1 µM.

Consider `C[C@@H](NC(=O)[C@H](c1cccnc1)N(C(=O)c1ccco1)c1ccc(-c2ccccc2)cc1)c1cccc(OCCOc2cccc3c2C(=O)N(C2CCC(=O)NC2=O)C3=O)c1` (stereo partly shown) [TS338F1], for which the IC50 in assay [2] fell in the range of 10 to 25 µM.

One may read the EC50 as the concentration needed to bring the measured effect to its halfway point. Turning to `O=C1CCC(N2C(=O)c3cccc(OCCNC(=O)c4ccc5cncc(N6C(=O)NC7(CC(c8ccccc8Cl)C7)C6=O)c5c4)c3C2=O)C(=O)N1` (stereo not shown) [Compound C10778P, 4-(2-(2-chlorophenyl)-6,8-dioxo-5,7-diazaspiro[3.4]octan-7-yl)-N-(2-((2-(2,6-dioxopiperidin-3-yl)-1,3-dioxoisoindolin-4-yl)oxy)ethyl)isoquinoline-6-carboxamide], in assay [1], the inhibition at 10 µM is more than 75%, the inhibition at 50 µM is more than 75% and the EC50 is 4.9 µM. Further, the IC50 in assay [2] was less than 0.1 µM.

Regarding `O=C1CCC(N2C(=O)c3cccc(OCCCCCCCC(=O)Nc4cccn([C@@H](CC5CC5)C(=O)N[C@@H](C[C@@H]5CCNC5=O)C(=O)C(=O)NCc5ccccc5)c4=O)c3C2=O)C(=O)N1` (stereo partly shown) [BT152], in assay [1], the inhibition at 10 µM is less than 25% and the inhibition at 50 µM is less than 50%. The IC50 in assay [2] is less than 1 µM.

With `Cc1ncsc1-c1ccc(CNC(=O)[C@@H]2C[C@@H](O)CN2C(=O)[C@@H](NC(=O)C2(F)CC2)C(C)(C)C)c(OCCCCCCNC(=O)[C@@H](NC(=O)C(c2cccnc2)N(C(=O)c2ccco2)c2ccc3c(c2)oc2ccccc23)c2ccccc2)c1` (stereo partly shown) [TS349F1], the IC50 in assay [2] was less than 10 µM.

`O=C1CCC(N2C(=O)c3cccc(NCCNC(=O)[C@H](NC(=O)[C@@H](c4cccnc4)N(C(=O)c4ccco4)c4ccc(-c5ccccc5)cc4)c4ccccc4)c3C2=O)C(=O)N1` (mixture of isomers) [TS449F1]: in assay [1], the inhibition at 10 µM was less than 0% and the inhibition at 50 µM is less than 0%. Moreover, in assay [2], the IC50 is less than 0.1 µM.

As for `O=C1CCC(N2C(=O)c3cccc(OCCCCCCCCNC(=O)c4ccc5c(N6C(=O)NC7(CC(c8ccccc8Cl)C7)C6=O)cncc5c4)c3C2=O)C(=O)N1` (stereo not shown) [Compound C10778T, 4-(2-(2-chlorophenyl)-6,8-dioxo-5,7-diazaspiro[3.4]octan-7-yl)-N-(8-((2-(2,6-dioxopiperidin-3-yl)-1,3-dioxoisoindolin-4-yl)oxy)octyl)isoquinoline-7-carboxamide], in assay [1], the inhibition at 10 µM was less than 0% and the inhibition at 50 µM is less than 0%. Besides, the IC50 in assay [2] was less than 0.1 µM.

Regarding `Cc1ncsc1-c1ccc(CNC(=O)[C@@H]2C[C@@H](O)CN2C(=O)[C@@H](NC(=O)C2(F)CC2)C(C)(C)C)c(OCCNC(=O)[C@@H](NC(=O)C(c2cccnc2)N(C(=O)c2ccco2)c2ccc3c(c2)oc2ccccc23)c2ccccc2)c1` (stereo partly shown) [TS347F1], the IC50 in assay [2] was less than 10 µM.

As for `O=C1CCC(N2C(=O)c3cccc(NCCCCNC(=O)[C@H](NC(=O)[C@@H](c4cccnc4)N(C(=O)c4ccco4)c4ccc(-c5ccccc5)cc4)c4ccccc4)c3C2=O)C(=O)N1` (mixture of isomers) [TS451F1], in assay [1], the inhibition at 10 µM is less than 0% and the inhibition at 50 µM is less than 0%. In addition, the IC50 in assay [2] was less than 10 µM.

In the case of `O=C1CCC(N2C(=O)c3cc(F)c(N4CCN(CC5CCN(C(=O)[C@H](NC(=O)[C@@H](c6cccnc6)N(C(=O)c6ccco6)c6ccc(-c7ccccc7)cc6)c6ccccc6)CC5)CC4)cc3C2=O)C(=O)N1` (single isomer, unassigned) [TS471], in assay [1], the inhibition at 10 µM is less than 25% and the inhibition at 50 µM was less than 25%. Moreover, in assay [2], the IC50 was less than 1 µM.

On to `O=C1CCC(N2C(=O)c3cccc(NCCOCCOCCNC(=O)[C@@H](NC(=O)C(c4cccnc4)N(C(=O)c4ccco4)c4ccc5c(c4)oc4ccccc45)c4ccccc4)c3C2=O)C(=O)N1` (stereo partly shown) [TS302F1], for which the IC50 in assay [2] is less than 10 µM.

Take `O=C1CCC(N2C(=O)c3ccc(NCCCCCCNC(=O)c4ccc5c(N6C(=O)NC7(CC(c8ccccc8Cl)C7)C6=O)cncc5c4)cc3C2=O)C(=O)N1` (stereo not shown) [Compound C10778W, 4-(2-(2-chlorophenyl)-6,8-dioxo-5,7-diazaspiro[3.4]octan-7-yl)-N-(6-((2-(2,6-dioxopiperidin-3-yl)-1,3-dioxoisoindolin-5-yl)amino)hexyl)isoquinoline-7-carboxamide]: in assay [1], the inhibition at 10 µM was less than 0% and the inhibition at 50 µM was less than 0%. For the same compound, the IC50 in assay [2] was less than 1 µM.

As for `O=C1CCC(N2C(=O)c3cccc(NCCOCCOCCOCCNC(=O)[C@H](NC(=O)[C@@H](c4cccnc4)N(C(=O)c4ccco4)c4ccc(-c5ccccc5)cc4)c4ccccc4)c3C2=O)C(=O)N1` (mixture of isomers) [TS455F1], in assay [1], the inhibition at 10 µM is less than 0% and the inhibition at 50 µM was less than 0%. For the same compound, the IC50 in assay [2] is less than 0.1 µM.

For the compound `O=C1CCC(N2C(=O)c3cccc(NCCCNC(=O)[C@@H](NC(=O)C(c4cccnc4)N(C(=O)c4ccco4)c4ccc5c(c4)oc4ccccc45)c4ccccc4)c3C2=O)C(=O)N1` (stereo partly shown) [TS284F2], in assay [1], the inhibition at 10 µM was less than 0% and the inhibition at 50 µM is less than 0%. In addition, the IC50 in assay [2] was less than 10 µM.

On to `O=C(COc1ccc(C2CCC(=O)NC2=O)cc1)NCCCCCNC(=O)c1ccc2cncc(N3C(=O)NC4(CC(c5ccccc5Cl)C4)C3=O)c2c1` (stereo not shown) [Compound C10778R, 4-(2-(2-chlorophenyl)-6,8-dioxo-5,7-diazaspiro[3.4]octan-7-yl)-N-(5-(2-(4-(2,6-dioxopiperidin-3-yl)phenoxy)acetamido)pentyl)isoquinoline-6-carboxamide], for which, in assay [1], the inhibition at 10 µM was more than 75%, the inhibition at 50 µM is more than 75% and the EC50 came to 4.9 µM. Besides, in assay [2], the IC50 was less than 0.1 µM.

Regarding `O=C1CCC(N2C(=O)c3cccc(OCCCCNC(=O)c4ccc5cncc(N6C(=O)NC7(CC(c8ccccc8Cl)C7)C6=O)c5c4)c3C2=O)C(=O)N1` (stereo not shown) [Compound C107780, 4-(2-(2-chlorophenyl)-6,8-dioxo-5,7-diazaspiro[3.4]octan-7-yl)-N-(4-((2-(2,6-dioxopiperidin-3-yl)-1,3-dioxoisoindolin-4-yl)oxy)butyl)isoquinoline-6-carboxamide], in assay [1], the inhibition at 10 µM was less than 25% and the inhibition at 50 µM is more than 75%. Further, the IC50 in assay [2] was less than 0.1 µM.

With `O=C1CCC(N2C(=O)c3cccc(NCCOCCNC(=O)[C@@H](NC(=O)[C@@H](c4cccnc4)N(C(=O)c4ccco4)c4ccc(-c5ccccc5)cc4)c4ccccc4)c3C2=O)C(=O)N1` (single isomer, unassigned) [TS453F1b], in assay [1], the inhibition at 10 µM is less than 0% and the inhibition at 50 µM is less than 0%. The IC50 in assay [2] was less than 1 µM.

As to `O=C1CCC(N2C(=O)c3cccc(OCCCCNC(=O)c4ccc5c(N6C(=O)NC7(CC(c8ccccc8Cl)C7)C6=O)cncc5c4)c3C2=O)C(=O)N1` (stereo not shown) [Compound C10778U, 4-(2-(2-chlorophenyl)-6,8-dioxo-5,7-diazaspiro[3.4]octan-7-yl)-N-(4-((2-(2,6-dioxopiperidin-3-yl)-1,3-dioxoisoindolin-4-yl)oxy)butyl)isoquinoline-7-carboxamide], in assay [1], the inhibition at 10 µM was less than 25% and the inhibition at 50 µM is less than 25%. Besides, in assay [2], the IC50 is less than 0.1 µM.

For the compound `O=C1CCC(N2C(=O)c3cccc(NCCCNC(=O)[C@@H](NC(=O)[C@@H](c4cccnc4)N(C(=O)c4ccco4)c4ccc(-c5ccccc5)cc4)c4ccccc4)c3C2=O)C(=O)N1` (single isomer, unassigned) [TS450F1], in assay [1], the inhibition at 10 µM is less than 0% and the inhibition at 50 µM is less than 0%. In assay [2], the IC50 was less than 1 µM.

Take `C[C@@H](NC(=O)C(c1cccnc1)N(C(=O)c1ccco1)c1ccc(-c2ccccc2)cc1)c1cccc(OCCCCOc2cccc3c2C(=O)N(C2CCC(=O)NC2=O)C3=O)c1` (stereo partly shown) [TS325F2]: in assay [2], the IC50 was less than 10 µM.

As to `O=C1CCC(N2C(=O)c3cccc(NCCOCCOCCNC(=O)C(NC(=O)C(c4cccnc4)N(C(=O)c4ccco4)c4ccc(-c5ccccc5)cc4)c4ccccc4)c3C2=O)C(=O)N1` (single isomer, unassigned) [TS454F1], in assay [1], the inhibition at 10 µM was less than 0% and the inhibition at 50 µM is less than 0%. Also, the IC50 in assay [2] is less than 1 µM.

As to `O=C1CCC(N2C(=O)c3cccc(OCCCCCCNC(=O)c4ccc5cncc(N6C(=O)NC7(CC(c8ccccc8Cl)C7)C6=O)c5c4)c3C2=O)C(=O)N1` (stereo not shown) [Compound C10778L, 4-(2-(2-chlorophenyl)-6,8-dioxo-5,7-diazaspiro[3.4]octan-7-yl)-N-(6-((2-(2,6-dioxopiperidin-3-yl)-1,3-dioxoisoindolin-4-yl)oxy)hexyl)isoquinoline-6-carboxamide], in assay [1], the inhibition at 10 µM was less than 25% and the inhibition at 50 µM is less than 25%. Moreover, the IC50 in assay [2] was less than 0.1 µM.

`C[C@H](NC(=O)[C@@H](c1cccnc1)N(C(=O)c1ccco1)c1ccc(-c2ccccc2)cc1)c1ccccc1OCCCCOc1cccc2c1C(=O)N(C1CCC(=O)NC1=O)C2=O` (stereo in doubt) [TS355F1]: the IC50 in assay [2] is less than 10 µM.

As to `C[C@@H](NC(=O)[C@H](c1cccnc1)N(C(=O)c1ccco1)c1ccc(-c2ccccc2)cc1)c1cccc(OCCCCOc2cccc3c2C(=O)N(C2CCC(=O)NC2=O)C3=O)c1` (stereo partly shown) [TS325F1], the IC50 in assay [2] is less than 10 µM.

With `C[C@@H](NC(=O)[C@H](c1cccnc1)N(C(=O)c1ccco1)c1ccc(-c2ccccc2)cc1)c1cccc(OCCCCCCCCOc2cccc3c2C(=O)N(C2CCC(=O)NC2=O)C3=O)c1` (stereo partly shown) [TS339F2], in assay [2], the IC50 was 10 to 25 µM.
